Assay [1] addresses human metabotropic glutamate receptor mGluR2 (Homo sapiens (Human), UniProt Q14416). In words: [35S]GTPγS binding test, mGluR2. It counts as biochemical. To be noted: inhibition of glutamate (20 μM)-stimulated [35S]GTPγS specific binding, CHO cell membranes. Here is the method: (§1) Test 1 [^35S]GTPγS binding test
(§2) CHO cells stably expressing human metabotropic glutamate receptors mGluR2 and mGluR3 were cultured at 37° C. under 5% CO2 using a Dulbecco's modified Eagle medium [1% proline, 1 mM sodium pyruvate, 1 mM succinic acid, 1 mM disodium succinate, 100 units/mL penicillin, 100 μg/mL streptomycin, 400 (mGluR2) or 300 (mGluR3) μg/mL hygromycin B, 2 mM L-glutamine (added just before use)] containing 10% dialyzed fetal bovine serum. The cells in a confluent state were washed with PBS(−), then dissociated using a cell scraper, and centrifuged at 1000 rpm for 5 minutes at 4° C. to recover the cells. The obtained pellet was suspended in a 20 mM HEPES buffer (pH 7.4) (mGluR2) or 20 mM HEPES buffer containing 1 mM EDTA (pH 7.4) (mGluR3), and the suspension was homogenized in a Teflon® homogenizer and then centrifuged at 48,000×g for 20 minutes at 4° C. to obtain a pellet again. The obtained pellet was subjected to two additional cycles of washing and centrifugation and then homogenized with the buffer described above to obtain a crude membrane fraction. The crude membrane fraction was diluted with a buffer for a binding test (final concentration: 20 mM HEPES, 100 mM NaCl, 10 mM MgCl2, 10 μM GDP, […], 0.1% BSA) (mGluR2) or (final concentration: 20 mM HEPES, 1 mM EDTA, 100 mM NaCl, 10 mM MgCl2, 10 μM GDP, 10 μg/mL saponin, 0.1% BSA) (mGluR3). To the crude membrane fraction containing 10 μg of membrane proteins/assay, Compounds (II)-1 to (II)-15 were each added, and the mixture was incubated at 30° C. for 20 minutes. Then, glutamate (final concentration: 20 (mGluR2) or 1 (mGluR3) μM) and [^35S]GTPγS (final concentration: 0.15 nM) were added thereto, and the mixture was incubated at 30° C. for 1 hour. The solution thus incubated was filtered by suction onto Whatman GF/C filter, and the filter was washed with 1000 μL of an ice-cooled 20 mM HEPES buffer (pH 7.4) (mGluR2) or 20 mM HEPES buffer containing 1 mM EDTA (pH 7.4) (mGluR3). A scintillation cocktail was added to the obtained filter, and the membrane binding radioactivity was measured using a liquid scintillation counter. The residual radioactivity in the absence of glutamate was defined as nonspecific binding, and the difference from the residual radioactivity in the presence of glutamate was defined as specific binding. From the percent inhibition of specific binding at varying concentrations of Compounds (II)-1 to (II)-15, an inhibition curve was obtained using nonlinear analysis. The concentrations at which Compounds (II)-1 to (II)-15 inhibited 50% of specific binding (IC50) were calculated from the inhibition curve.
On the technique in general: GTPγS is a poorly hydrolysed GTP analogue; its binding reports G protein activation.

The target of assay [2] is human metabotropic glutamate receptor mGluR3 (Homo sapiens (Human), UniProt Q14832). In words: [35S]GTPγS binding test, mGluR3. It counts as biochemical. Conditions: inhibition of glutamate (1 μM)-stimulated [35S]GTPγS specific binding, CHO cell membranes. Here is the method: as §1, §2
The target of another assay is mGlu2 receptor (Homo sapiens (Human), UniProt Q14416). Conditions: reported in literature; cited from earlier work.
The test system of another assay is mice. Conditions: cited from earlier work.
The target in a further assay is mGlu3 receptor (Homo sapiens (Human), UniProt Q14832). To be noted: reported in literature; cited from earlier work.
A further assay relates to rats. To be noted: 1 mg/kg; cited from earlier work.

Consider 16 compounds from patent publication US10689327B2, “Prodrug amino acid derivative” (TAISHO PHARMACEUTICALS CO., LTD., priority 2016, dated 2020).

Structures are written as SMILES.

Chain of mGlu2 receptor (Q14416 19-872): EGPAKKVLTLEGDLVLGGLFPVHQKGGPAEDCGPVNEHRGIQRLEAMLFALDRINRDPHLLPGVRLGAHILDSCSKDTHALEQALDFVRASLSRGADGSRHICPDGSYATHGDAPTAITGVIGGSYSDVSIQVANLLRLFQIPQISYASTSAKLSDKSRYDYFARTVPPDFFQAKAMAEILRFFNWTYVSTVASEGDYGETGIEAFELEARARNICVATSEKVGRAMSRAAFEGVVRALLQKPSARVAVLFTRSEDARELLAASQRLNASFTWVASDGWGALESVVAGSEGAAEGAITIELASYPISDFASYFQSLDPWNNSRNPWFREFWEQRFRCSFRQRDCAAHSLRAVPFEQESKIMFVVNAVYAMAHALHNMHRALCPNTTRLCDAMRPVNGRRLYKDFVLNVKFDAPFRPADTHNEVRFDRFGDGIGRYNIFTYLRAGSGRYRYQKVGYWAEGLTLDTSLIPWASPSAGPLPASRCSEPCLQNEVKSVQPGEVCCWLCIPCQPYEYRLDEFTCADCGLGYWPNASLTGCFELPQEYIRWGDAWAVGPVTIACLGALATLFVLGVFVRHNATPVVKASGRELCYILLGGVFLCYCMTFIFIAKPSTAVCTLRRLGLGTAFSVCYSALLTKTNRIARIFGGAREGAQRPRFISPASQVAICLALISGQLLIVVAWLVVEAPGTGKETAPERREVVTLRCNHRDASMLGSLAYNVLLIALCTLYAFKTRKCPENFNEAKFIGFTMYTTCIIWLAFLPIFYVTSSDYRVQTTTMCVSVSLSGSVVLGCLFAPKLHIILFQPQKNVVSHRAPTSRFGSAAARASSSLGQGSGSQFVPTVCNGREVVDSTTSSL
Chain of human metabotropic glutamate receptor mGluR2 (Q14416 19-872): as above
Chain of human metabotropic glutamate receptor mGluR3 (Q14832 23-879): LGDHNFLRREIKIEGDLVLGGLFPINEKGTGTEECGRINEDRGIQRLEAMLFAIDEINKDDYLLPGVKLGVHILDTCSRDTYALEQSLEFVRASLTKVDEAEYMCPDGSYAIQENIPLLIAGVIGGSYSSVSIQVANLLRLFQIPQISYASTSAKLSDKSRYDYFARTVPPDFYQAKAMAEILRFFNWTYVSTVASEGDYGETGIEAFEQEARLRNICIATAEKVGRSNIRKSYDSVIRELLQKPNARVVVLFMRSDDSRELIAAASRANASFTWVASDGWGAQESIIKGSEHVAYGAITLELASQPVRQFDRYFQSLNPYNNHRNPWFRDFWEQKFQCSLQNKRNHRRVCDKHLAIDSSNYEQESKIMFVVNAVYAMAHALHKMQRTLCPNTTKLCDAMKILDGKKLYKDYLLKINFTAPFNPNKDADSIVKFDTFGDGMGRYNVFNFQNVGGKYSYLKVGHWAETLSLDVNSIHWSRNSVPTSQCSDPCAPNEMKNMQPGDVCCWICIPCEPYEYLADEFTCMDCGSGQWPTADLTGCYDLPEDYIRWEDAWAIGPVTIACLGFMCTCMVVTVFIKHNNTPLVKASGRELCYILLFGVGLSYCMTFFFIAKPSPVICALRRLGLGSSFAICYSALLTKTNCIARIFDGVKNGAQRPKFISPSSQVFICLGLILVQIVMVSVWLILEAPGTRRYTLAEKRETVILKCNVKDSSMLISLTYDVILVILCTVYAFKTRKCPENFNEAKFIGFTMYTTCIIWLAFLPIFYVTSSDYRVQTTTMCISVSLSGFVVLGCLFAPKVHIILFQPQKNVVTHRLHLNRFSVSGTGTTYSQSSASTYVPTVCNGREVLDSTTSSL
Chain of mGlu3 receptor (Q14832 23-879): as above

As for `COc1cc([C@@H](C)O[C@@H]2C[C@@H]3[C@H]([C@]2(N)C(=O)O)[C@@]3(F)C(=O)O)ccc1F` [Compound (II)-4, (1R,2R,3R,5R,6R)-2-amino-6-fluoro-3-[(1R)-1-(4-fluoro-3-methoxyphenyl)ethoxy]bicyclo[3.1.0]hexane-2,6-dicarboxylic acid], the results for the IC50 in assay [1] and in assay [2] were 5.22 nM and 5.04 nM, respectively.
For `N[C@]1(C(=O)O)[C@H]2[C@@H](C[C@H]1OCc1ccc(F)c(F)c1)[C@]2(F)C(=O)O` [Compound (II)-2, (1R,2R,3R,5R,6R)-2-amino-3-[(3,4-difluorophenyl)methoxy]-6-fluorobicyclo[3.1.0]hexane-2,6-dicarboxylic acid], the 50% inhibitory concentration (IC50) (commonly the concentration needed to halve the response being measured) amounted to 18.8 nM in assay [1] and 14.8 nM in assay [2]. The “antagonistic activity (mGlu2 receptor)” value at mGlu2 receptor is no more than 500 nM.
With `N[C@]1(C(=O)O)[C@H]2[C@@H](C[C@H]1OCc1ccc(Cl)nc1)[C@]2(F)C(=O)O` [Compound (II)-10, (1R,2R,3R,5R,6R)-2-amino-3-[(6-chloropyridin-3-yl)methoxy]-6-fluorobicyclo[3.1.0]hexane-2,6-dicarboxylic acid], the IC50 in assay [1] was 49.7 nM; in assay [2], 50.6 nM.
As for `N[C@]1(C(=O)O)[C@H]2[C@@H](C[C@H]1OCc1ccc(F)c(F)c1)[C@@H]2C(=O)O` [Compound (II)-14, (1S,2R,3R,5R,6S)-2-amino-3-[(3,4-difluorophenyl)methoxy]bicyclo[3.1.0]hexane-2,6-dicarboxylic acid], the IC50 in assay [1] turned out to be 30.1 nM; in assay [2] it was 15.2 nM.
In the same order, the values of `N[C@]1(C(=O)O)[C@H]2[C@@H](C[C@H]1OCc1cc[nH]c(=O)c1)[C@]2(F)C(=O)O` [Compound (II)-13, (1R,2R,3R,5R,6R)-2-amino-6-fluoro-3-[(2-oxo-1,2-dihycropyridin-4-yl)methoxy]bicyclo[3.1.0]hexane-2.6-dicarboxylic acid] are 37.3 nM and 4.35 nM.
`N[C@]1(C(=O)O)[C@H]2[C@@H](C[C@H]1OCc1ccc(F)cc1)[C@]2(F)C(=O)O` [Compound (II)-1, (1R,2R,3R,5R,6R)-2-amino-6-fluoro-3-[(4-fluorophenyl)methoxy]bicyclo[3.1.0]hexane-2,6-dicarboxylic acid]: the IC50 in assay [1] is 36.1 nM; in assay [2], 36.4 nM. Also, at mGlu2 receptor, the “antagonistic activity (mGlu2 receptor)” value is reported as no more than 500 nM.
`N[C@]1(C(=O)O)[C@H]2[C@@H](C[C@H]1OCc1ccc(Cl)cn1)[C@]2(F)C(=O)O` [Compound (II)-11, (1R,2R,3R,5R,6R)-2-amino-3-[(5-chloropyridin-2-yl)methoxy]-6-fluorobicyclo[3.1.0]hexane-2,6-dicarboxylic acid]: the IC50 in assay [1] was 28.4 nM; in assay [2], 12.4 nM.
As for `N[C@]1(C(=O)O)[C@H]2[C@@H](C[C@H]1OCc1ccc(Cl)c(Cl)c1)[C@]2(F)C(=O)O` [MGS0039], on mGlu2 receptor, the “antagonistic activity (mGlu2 receptor)” value is recorded as 20 nM. Moreover, the “immobility time in the tail suspension test” value with mice is “shortens immobility time”. Also, the “antagonistic activity (mGlu3 receptor)” value on mGlu3 receptor is listed as 24 nM. Also, the “immobility time in the forced swimming test” value in the assay on rats is on record as “sufficient to suppress immobility time”.
`N[C@]1(C(=O)O)[C@H]2[C@@H](C[C@H]1OCc1cccc(F)c1)[C@]2(F)C(=O)O` [Compound (II)-6, (1R,2R,3R,5R,6R)-2-amino-6-fluoro-3-[(3-fluorophenyl)methoxy]bicyclo[3.1.0]hexane-2.6-dicarboxylic acid]: the half-inhibitory concentration (IC50) turned out to be 27.8 nM in assay [1] and 75.5 nM in assay [2].
With `Cc1ccc(CO[C@@H]2C[C@@H]3[C@H]([C@]2(N)C(=O)O)[C@@]3(F)C(=O)O)cc1` [Compound (II)-12, (1R,2R,3R,5R,6R)-2-amino-6-fluoro-3-[(4-methylphenyl)methoxy]bicyclo[3.1.0]hexane-2.6-dicarboxylic acid], the half-maximal inhibitory concentration (IC50) in assay [1] stood at 24.6 nM; in assay [2], 54.4 nM.
For `N[C@]1(C(=O)O)[C@H]2[C@@H](C[C@H]1OCc1ccc(F)cc1)[C@@H]2C(=O)O` [Compound (II)-15, (1S,2R,3R,5R,6S)-2-amino-3-[(4-fluorophenyl)methoxy]bicyclo[3.1.0]hexane-2,6-dicarboxylic acid], the IC50 in assay [1] was determined as 32.7 nM; in assay [2], 60.5 nM.
For `CCCO[C@@H]1C[C@@H]2[C@H]([C@]1(N)C(=O)O)[C@@]2(F)C(=O)O` [Compound (II)-3, (1R,2R,3R,5R,6R)-2-amino-6-fluoro-3-propoxybicyclo[3.1.0]hexane-2,6-dicarboxylic acid], the IC50 in assay [1] is 75.1 nM; in assay [2] it was 321 nM. Moreover, the “antagonistic activity (mGlu2 receptor)” value on mGlu2 receptor is given as no more than 500 nM.
As to `N[C@]1(C(=O)O)[C@H]2[C@@H](C[C@H]1OC1CCCC1)[C@]2(F)C(=O)O` [Compound (II)-9, (1R,2R,3R,5R,6R)-2-amino-3-(cyclopentyloxy)-6-fluorobicyclo[3.1.0]hexane-2,6-dicarboxylic acid], the IC50 turned out to be 62.2 nM in assay [1] and 97.6 nM in assay [2].
Regarding `N[C@]1(C(=O)O)[C@H]2[C@@H](C[C@H]1OCc1cccc(Cl)n1)[C@]2(F)C(=O)O` [Compound (II)-8, (1R,2R,3R,5R,6R)-2-amino-3-[(6-chloropyridin-2-yl)methoxy]-6-fluorobicyclo[3.0.1]hexane-2,6-dicarboxylic acid], the results for the 50% inhibitory concentration (IC50) in assay [1] and in assay [2] were 18.6 nM and 32.3 nM, respectively.
Turning to `CC(C)CCO[C@@H]1C[C@@H]2[C@H]([C@]1(N)C(=O)O)[C@@]2(F)C(=O)O` [Compound (II)-7, (1R,2R,3R,5R,6R)-2-amino-6-fluoro-3-(3-methylbutoxy)bicyclo[3.1.0]hexane-2,6-dicarboxylic acid], the IC50 in assay [1] was 98.8 nM; in assay [2], 173 nM.
As for `N[C@]1(C(=O)O)[C@H]2[C@@H](C[C@H]1OCc1ccc(C(F)(F)F)cc1)[C@]2(F)C(=O)O` [Compound (II)-5, (1R,2R,3R,5R,6R)-2-amino-6-fluoro-3-{[4-(triflouromethyl)phenyl]methoxy}bicyclo[3.1.0]hexane-2,6-dicarboxylic acid], the IC50 stood at 23.7 nM in assay [1] and 279 nM in assay [2].
